target: T1, alpha-A crystalline (Homo sapiens, UniProt P02489); assay: Ca+2 and UVC induced aggregation of alpha-A crystalline (absorbance screen); assay type: biochemical; conditions: 200 μM; Ca+2 and UVC induced aggregation of alpha-A crystalline;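 note: recombinant human alpha-A crystallin (500 µg/ml) preincubated 30 min with compound, then UV-induced aggregation tracked by absorbance at time points from 0 to 120 min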
T1 sequence (P02489 1-173): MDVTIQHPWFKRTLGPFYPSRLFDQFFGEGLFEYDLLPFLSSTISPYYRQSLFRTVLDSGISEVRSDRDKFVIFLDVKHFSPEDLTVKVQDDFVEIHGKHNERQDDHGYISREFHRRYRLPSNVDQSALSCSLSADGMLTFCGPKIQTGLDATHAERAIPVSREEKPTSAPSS

| SMILES | Percent protection (at 200 μM) [%] |
| --- | --- |
| CC(CCc1ccc(O)cc1)NCCc1ccc(O)c(O)c1 (stereo not shown) [CAP1264] | 3 |
| CC(CCc1ccc(O)cc1)NCCc1ccc(O)c(O)c1 (stereo not shown) [CAP1266] | −14 |
| COc1ccc(CCNC(=O)CCCC(=O)NCCc2ccc(OC)c(OC)c2)cc1OC [CAP1278] | 38 |
| Oc1cc(O)c2c(c1)O[C@H](c1ccc(O)c(O)c1)[C@H](O)C2 [CAP3032] | −16 |
| Oc1cc(O)c2c(c1)O[C@H](c1ccc(O)c(O)c1)[C@H](O)C2 [CAP3042] | −17 |

same assay, conditions: 200 μM; Ca+2 and UVC induced aggregation of alpha-A crystalline; read-out: Percent protection (at 200 μM)

| SMILES | inhibition at 200 µM [%] |
| --- | --- |
| COc1ccc(CCNC(=O)C2CCN(C(=O)c3ccc(F)cc3)CC2)cc1OC [CAP1232] | 41 |
| COc1ccc(CCNC(=O)CCCC2CCCC2)cc1OC [CAP1236] | -2 |
| O=C(CC1CCC1)NCCc1ccc(O)c(O)c1 [CAP1239] | 23 |
| CCCCCCCCCCCCCCCCCC(=O)NCCc1ccc(O)c(O)c1 [CAP1241] | 135 |
| NCCc1ccc(O)c(O)c1 [CAP1265] | -6 |
| COc1ccc(CCNC(=O)CCC2CCCCC2)cc1OC [CAP1274] | 55 |
| COc1ccc(CC(=O)NC2CCCCCCCCCCC2)cc1OC [CAP1279] | 5 |
| O=C(NCCc1ccccc1)C1CCC(C(=O)NCCc2ccccc2)CC1 (stereo not shown) [CAP1280] | 44 |
| COc1ccc(CCNC(=O)CC23CC4CC(CC(C4)C2)C3)cc1OC [CAP1281] | 64 |
| NC(=O)c1ncn([C@@H]2O[C@H](CO)[C@@H](O)[C@H]2O)n1 [CAP1380] | 16 |
| COc1cc2cc(C(=O)O)[nH]c2cc1OC [CAP1447] | 22 |
| O=c1c(O)c(-c2ccc(O)c(O)c2)oc2cc(O)cc(O)c12 [CAP1451] | 35 |
| Oc1cc(O)c2c(c1)O[C@@H](c1ccc(O)c(O)c1)[C@@H](O)C2 [CAP1458] | -17 |
| COc1cc(/C=C/C(=O)/C=C(O)/C=C/c2ccc(O)c(OC)c2)ccc1O [CAP1459] | -95 |
| O=C(O[C@H]1Cc2c(O)cc(O)cc2O[C@H]1c1cc(O)c(O)c(O)c1)c1cc(O)c(O)c(O)c1 [CAP1460] | 1 |
| CC(=O)Oc1cc2cc[nH]c2cc1OC(C)=O [CAP1517] | 40 |
| COC(=O)[C@@H](NC(C)=O)c1ccc(OC(C)=O)c(OC(C)=O)c1 [CAP1518] | -4 |
| COc1cc2cc[nH]c2cc1OC [CAP1519] | 9 |
| COc1cc2nc(N3CCN(C(=O)C4COc5ccccc5O4)CC3)nc(N)c2cc1OC (stereo not shown) [CAP3035] | 114 |
| O=C1O[C@H]([C@@H](O)CO)C(O)=C1O [CAP3037] | -2 |
| COc1cc(/C=C/C(=O)CC(=O)/C=C/c2ccc(O)c(OC)c2)ccc1O [CAP3040] | 4 |
| O=C(O)/C=C/c1ccc(O)c(O)c1 [CAP3062] | 16 |
| COc1ccc(/C=C/C(=O)O)cc1OC [CAP3064] | 12 |
| CC(=O)/C=C/c1ccc(O)c(O)c1 [CAP3065] | -32 |
| COc1ccc(/C=C/C(C)=O)cc1OC [CAP3066] | 21 |
| CC(=O)c1cc(C)cc([N+](=O)[O-])c1O [CAP3071] | 30 |
| COc1cc(C(=O)O)cc(OC)c1O [CAP3107] | 7 |
| Oc1cc2cc[nH]c2cc1O [CP1194] | 25 |

same assay, conditions: preventing Ca+2 and UVC induced aggregation of alpha-A crystalline

| SMILES | EC50 [µM] |
| --- | --- |
| O=C(NCCc1ccccc1)C1CCC(C(=O)NCCc2ccccc2)CC1 (stereo not shown) [CAP1280] | 193 |
| Oc1cc2cc[nH]c2cc1O [CP1194] | 1100 |

same assay, conditions: read-out: Percent protection (at 200 μM)

| SMILES | inhibition at 200 µM [%] |
| --- | --- |
| CC1CCC(NC(C)Cc2ccc(O)c(O)c2)CC1 (stereo not shown) [CAP1240] | -13 |
| Cc1cc2c(C(C)C)c(O)c(O)c(C=O)c2c(O)c1-c1c(C)cc2c(C(C)C)c(O)c(O)c(C=O)c2c1O [CAP1356] | -46 |

Reference: patent US11872236B2, “Pharmacological agents for treating ocular diseases” (CALASIA PHARMACEUTICALS, INC., priority 2018, dated 2024)
